Source: patent publication US20220213060A1, “Crystal Form of Quinazolinone Compound and Preparation Method Therefor” (Luoxin Healthcare Science and Technology Development …, priority 2019, published 2022)

Key:
[1] = target: T1, PI3Kγ (Homo sapiens, UniProt P48736); test: In vitro enzymatic activity test (ADP-Glo lipid kinase), PI3Kγ; type: biochemical; conditions: inhibitory activity against PI3Kα relative to PI3Kγ
T1 construct: purchased Millipore 14-558-K
Method: The lipid kinase reaction was carried out in a suitable substrate and under ATP conditions, then the activity of the kinase was detected by ADP-Glo™ kit in two steps. Step 1: the kinase reaction was terminated, in which the residual ATP was completely removed and only ADP was retained; step 2: kinase detection reagent was added to convert ADP to ATP, accompanied by fluorescein/luciferase reaction. Finally, the fluorescence value output was converted into kinase activity.
Experimental Materials and Equipment:
2) Kit: ADP-Glo™ lipid kinase and PIP2:3PS kit (Promega #V1792)
The reagent kit contains: 1 mM PIP2:3PS, 10× lipid dilution buffer, 1 M magnesium chloride, 10 mM ATP, 10 mM ADP, ADP-Glo reagent, detection buffer and detection substrate.
3) Reaction plate: OptiPlate-384, white and transparent (PerkinElmer #6007299)
1) 10× reaction buffer: 500 mM HEPES, pH 7.5, 500 mM NaCl, […]; BSA: 10% stock solution, self-made
2) Final test system conditions: 1× reaction system: 50 mM of HEPES, 50 mM of NaCl, 3 mM of MgCl2, 0.01% BSA (freshly prepared on the day of experiment), 1% DMSO (v/v)+/−compound
3) Reaction system: 3 μL of mixture of enzyme and substrate (1:1)+2 μL of ATP/MgCl2 mixture+5 μL of ADP-Glo reagent+10 μL of detection reagent.
The specific experimental operations were as follows: […]
(16) Fluorescence values were measured on the Envision instrument.

[2] = tested on: Jeko-1; test: Akt phosphorylation inhibition in Jeko-1 cells (high expression of PI3Kδ); type: cell-based; conditions: Jeko-1 cell line with high expression of PI3Kδ
[3] = tested on: HR+/HER2+ human breast cancer BT-474 (PIK3CA amplified); test: In vivo pharmacodynamic study, BT-474 nude mouse subcutaneous xenograft tumor model; parameters: species or system BALB/c nude mice
Method: The phenotype of human BT-474 breast cancer cells is HR+/HER2+, and it has PIK3CA amplification. This experiment evaluated the efficacy of the crystal form A of the compound represented by formula (I) in a human breast cancer xenograft tumor model, using BYL-719 as a reference.
Cell culture: Human breast cancer BT474 cells were cultured in vitro in a single layer, the culture condition was Hybri-Care medium with 10% fetal bovine serum and the cells were incubated in 5% CO2 at 37° C. Digestion and passage treatment with trypsin-EDTA was carried out twice a week. When the cell saturation was 80%-90% and the number reached the requirement, the cells were collected, counted and inoculated.
Animals: BALB/c nude mice, female, 6-8 weeks old, weighing 18-20 g. A total of 85 animals were required, and provided by Shanghai Bikai experimental animal Co., Ltd.
Tumor inoculation: Estrogen tablets (0.36 mg/tablet) were subcutaneously inoculated on the left back of each mouse, three days later, 0.2 mL (10×10^6 cells) of BT474 cells (with matrigel in a volume ratio of 1:1) were subcutaneously inoculated on the right back of each mouse, group administration was started when the average tumor volume reached 150 mm^3−200 mm^3.
Tumor-bearing mice in each administration group had good tolerance to the tested compounds.

[4] = 10 mg/kg, oral once a day for 20 days
[5] = 10 mg/kg, oral once a day for 20 days, listed as crystal form A of the compound represented by formula (I)
[6] = 20 mg/kg, oral once a day for 20 days
[7] = 20 mg/kg, oral once a day for 20 days, listed as crystal form A of the compound represented by formula (I)
[8] = 40 mg/kg, oral once a day for 20 days
[9] = 40 mg/kg, oral once a day for 20 days, listed as crystal form A of the compound represented by formula (I)

T1 sequence (P48736 whole entry): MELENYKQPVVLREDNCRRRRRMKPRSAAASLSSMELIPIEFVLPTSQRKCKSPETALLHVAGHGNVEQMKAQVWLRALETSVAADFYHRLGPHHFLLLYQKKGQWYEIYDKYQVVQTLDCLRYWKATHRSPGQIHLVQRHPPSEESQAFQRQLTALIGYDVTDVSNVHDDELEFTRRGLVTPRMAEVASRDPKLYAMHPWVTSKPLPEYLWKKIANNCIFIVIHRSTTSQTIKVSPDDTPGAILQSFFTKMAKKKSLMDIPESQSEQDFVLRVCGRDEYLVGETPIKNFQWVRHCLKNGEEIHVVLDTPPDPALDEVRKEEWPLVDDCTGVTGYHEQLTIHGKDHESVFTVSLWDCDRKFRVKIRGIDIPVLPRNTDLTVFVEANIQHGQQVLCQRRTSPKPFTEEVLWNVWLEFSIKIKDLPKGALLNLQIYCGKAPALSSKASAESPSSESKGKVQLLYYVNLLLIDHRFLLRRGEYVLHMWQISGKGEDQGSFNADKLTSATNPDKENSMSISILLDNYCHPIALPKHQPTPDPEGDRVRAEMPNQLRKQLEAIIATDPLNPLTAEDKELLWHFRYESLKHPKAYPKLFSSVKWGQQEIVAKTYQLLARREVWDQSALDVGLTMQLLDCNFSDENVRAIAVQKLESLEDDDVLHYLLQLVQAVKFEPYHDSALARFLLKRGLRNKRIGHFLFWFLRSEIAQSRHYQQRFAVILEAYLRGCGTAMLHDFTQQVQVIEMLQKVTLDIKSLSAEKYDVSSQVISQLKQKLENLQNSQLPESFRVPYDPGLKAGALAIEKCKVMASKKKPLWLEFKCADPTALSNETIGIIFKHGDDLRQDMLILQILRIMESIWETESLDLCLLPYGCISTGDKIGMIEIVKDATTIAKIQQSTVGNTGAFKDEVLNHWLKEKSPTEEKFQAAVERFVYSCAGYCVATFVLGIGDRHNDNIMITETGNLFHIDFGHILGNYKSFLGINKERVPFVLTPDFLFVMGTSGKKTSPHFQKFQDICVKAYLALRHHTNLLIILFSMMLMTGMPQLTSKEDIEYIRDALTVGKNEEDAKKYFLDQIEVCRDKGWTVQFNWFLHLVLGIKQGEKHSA

`CNC(=O)[C@H](C)Cn1cnc2ccc(-c3cnc(OC)c(NS(=O)(=O)c4ccc(F)cc4F)c3)cc2c1=O` was tested, and the “Selectivity PI3Kα/γ (kinase)” value [1] was 6.61 times, the “Selectivity PI3Kα over PI3Kδ, Akt phosphorylation inhibitory activity in cells” value [2] was 23.0 times and the “Anti-tumor effect (in words)” value ([3]; 10 mg/kg group) was “strong anti-tumor effect”. For the same compound, the T/C % [3, 4] was 50.18%, the TGI % [3, 4] was 65.34% and the T/C % [3, 5] was 50.18%. For the same compound, the TGI % [3, 5] was 65.34%, the “Anti-tumor effect (in words)” value ([3]; 20 mg/kg group) was “strong anti-tumor effect” and the T/C % [3, 6] was 37.92%. For the same compound, the TGI % [3, 6] was 80.21%, the T/C % [3, 7] was 37.92% and the TGI % [3, 7] was 80.21%. For the same compound, the “Anti-tumor effect (in words)” value ([3]; 40 mg/kg group) was “significant anti-tumor effects”, the T/C % [3, 8] was 21.16% and the TGI % [3, 8] was 105.65%. The T/C % [3, 9] was 21.16%, the TGI % [3, 9] was 105.65% and the “Dose to play the effect” value ([3]; oral once a day for 20 days) was 10 mg/kg.
